# Source: patent US8969577B2, “Curable composition comprising a thermolatent base” (BASF SE, priority 2008, dated 2015)
# Experiment: Curing of powder coating formulation, conversion of epoxy groups by ATR-IR
# Conditions: for Conversion at 5′ 130° C. / Conversion 5′ 130° C.: 5 min 130° C.; for Conversion at 5′ 150° C. / Conversion 5′ 150° C.: 5 min 150° C.; for Conversion 5′ 100° C. / Conversion 5′ 130° C. / Conversion 5′ 150° C. / Conversion 5′ 180° C.: Table 4, amount 1 wt. %; for Conversion 5′ 100° C. / Conversion at 5′ 100° C.: 5 min 100° C.; for Conversion 5′ 180° C.: 5 min 180° C.; for Conversion at 15′ 120° C.: 15 min 120° C.
# Protocol: A powder coating formulation consisting of an acidic functional polyester and an epoxy functional polymer that cures without a catalyst at 200° C. for 20 minutes is used. The solid coating formulation is dissolved at 50% solids in methyl-iso-butyl ketone for ease of application. The curing catalyst is added in varying amounts from 0.5 up to 1.5% by weight, based on solids. The thermolatent compounds are compared with imidazole or compound 1 as a reference base. The formulation is applied at wet thickness 250 μm using a wire bar. The solvent is evaporated at room temperature during 30 minutes, and the coating formulation is cured for given times and at the specified temperature (cf. Tables 2 to 4). The curing progress is evaluated using attenuated total reflection infrared (IR) spectroscopy. The fading of the epoxy-attributable peak at 899-921 cm^−1 in comparison to the stable reference peak at 814-841 cm^−1 is used for the calculation of the conversion of epoxy groups.
structure (smiles),measurement,setting,value
"OCCNc1ccccn1 [Compound 2, 2-(pyridine-2-ylamino)ethanol]",Conversion at 5′ 130° C.,amount 0.5 wt. %,26%
same,Conversion at 5′ 150° C.,amount 0.5 wt. %,97%
CN(C)CCCNc1ccc2ccccc2n1 [Compound 16],Conversion 5′ 100° C.,,0%
same,Conversion 5′ 130° C.,,0%
same,Conversion 5′ 150° C.,,20%
same,Conversion 5′ 180° C.,,100%
CCNC(=O)OCCNc1ccccn1 [Compound 7],Conversion at 5′ 130° C.,amount 1.0 wt. %,14%
same,Conversion at 5′ 150° C.,amount 1.0 wt. %,95%
same,Conversion at 5′ 130° C.,amount 1.5 wt. %,29%
same,Conversion at 5′ 150° C.,amount 1.5 wt. %,93%
CC(C)(C)OC(=O)OCCNc1ccccn1 [Compound 3],Conversion at 5′ 130° C.,amount 1.0 wt. %,22%
same,Conversion at 5′ 150° C.,amount 1.0 wt. %,94%
same,Conversion at 5′ 130° C.,amount 1.5 wt. %,23%
same,Conversion at 5′ 150° C.,amount 1.5 wt. %,100%
"C1=CC2=NCCN2C=C1 [Compound 1, reference compound]",Conversion at 5′ 100° C.,amount 0.5 wt. %,13%
same,Conversion at 15′ 120° C.,amount 0.5 wt. %,98%
"c1c[nH]cn1 [imidazole, reference compound]",Conversion 5′ 100° C.,,53%
same,Conversion 5′ 130° C.,,74%
same,Conversion 5′ 150° C.,,100%
same,Conversion 5′ 180° C.,,100%
same,Conversion at 5′ 100° C.,amount 0.5 wt. %,26%
same,Conversion at 5′ 130° C.,amount 0.5 wt. %,35%
same,Conversion at 5′ 150° C.,amount 0.5 wt. %,100%
same,Conversion at 15′ 120° C.,amount 0.5 wt. %,100%
